Assay results reported in patent US20250099420A1, “SMALL MOLECULE MODULATORS OF GPR139 COMPLEX” (University of Florida Research Foundation, Incorporated, priority 2022, published 2025).
Like-named read-outs stand apart in the source and are kept apart here.

Key:
parental HEK cells = test: HEK parental Agonist Counterscreen Assay (non-transfected cells); assay type: cell-based; details: for Averaged Max % Response (±St. Dev.): activity relative to known control
Description: The high control for the agonist counterscreen was Forskolin not acetylcholine.

GPR139 = target: T1, GPR139 (Homo sapiens, UniProt Q6DWJ6); test: GPR139 Agonist titration / agonist counterscreen assay (calcium detection, HEK-GPR139 cells); assay type: cell-based; set-up: expressed in transfected cells; host or cells: HEK Aequorin cells, Maxcyte transient transfection; details: GPR139 Agonist Activity; for EC50: read-out: EC50; for Averaged Max % Response (±St. Dev.): activity relative to known control
T1 sequence (Q6DWJ6 1-353): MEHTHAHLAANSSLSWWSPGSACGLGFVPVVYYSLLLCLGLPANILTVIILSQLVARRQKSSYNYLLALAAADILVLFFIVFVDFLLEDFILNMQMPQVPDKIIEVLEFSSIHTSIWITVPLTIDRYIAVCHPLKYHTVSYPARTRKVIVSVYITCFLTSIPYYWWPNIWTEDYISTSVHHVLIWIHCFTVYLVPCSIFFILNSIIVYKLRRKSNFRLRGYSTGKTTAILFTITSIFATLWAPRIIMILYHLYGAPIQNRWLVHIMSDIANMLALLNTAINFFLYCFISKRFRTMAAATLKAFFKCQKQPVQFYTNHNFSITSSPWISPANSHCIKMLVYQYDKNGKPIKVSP
Experimental: GPR activity was assessed using a calcium detection assay. […] Negative control samples were treated with DMSO. […] Intracellular calcium was measured using Calcium 5.

[1] = HEK Agonist Activity section of Table 4 (parental HEK counterscreen)
[2] = Homo sapiens, HEK293, HEK Agonist Activity section of Table 4 (parental HEK counterscreen)
[3] = Homo sapiens, HEK293, HEK Agonist Activity, parental non-transfected HEK cells
[4] = values printed in E-notation without unit
[5] = HEK Agonist Activity, parental non-transfected HEK cells

Compound | Lipophilic Efficiency (logD) (parental HEK cells; HEK Agonist Activity section) | Lipophilic Efficiency (logP) (parental HEK cells; HEK Agonist Activity section) | Efficiency Ligand (GPR139) | Hill Slope (GPR139) | Lipophilic Efficiency (logD) (GPR139) | Lipophilic Efficiency (logP) (GPR139) | EC50 (GPR139; HEK-GPR139 cells) | Averaged Max % Response (±St. Dev.) (GPR139) | Lipophilic Efficiency (logD) (GPR139; based on logD) | Lipophilic Efficiency (logP) (GPR139; based on logP) | Hill Slope (GPR139; fitted dose-response curve) | Efficiency Ligand (GPR139; ligand efficiency) | Lipophilic Efficiency (logD) (parental HEK cells; HEK Agonist Activity) | Lipophilic Efficiency (logP) (parental HEK cells; HEK Agonist Activity) | EC50 (GPR139; [4]) | Averaged Max % Response (±St. Dev.) (parental HEK cells; HEK Agonist Activity section) | EC50 (parental HEK cells; [2]) | Averaged Max % Response (±St. Dev.) (parental HEK cells; HEK Agonist Activity) | further results
C=C(Nc1ccc(-c2cn[nH]c2)cc1)N(C)Cc1cccc(C(=O)CC)c1 [SR-00000007008] | 1.85 | 1.85 | – | – | – | – | – | 75.98 ± 6.44% | 3.98 | 3.98 | 0.79 | 0.36 | – | – | – | −8.12 ± 2.24% | > 14100 nM | – | –
Cc1cccc(Cc2cnc(NC(=O)CC(C)C)s2)c1 [SR-01000071221] | – | – | – | – | – | – | – | 129.99 ± 9.49% | 2.68 | 2.68 | 1.13 | 0.52 | 0.08 | 0.08 | 39.6 nM | – | – | 19.19 ± 7.12% | EC50 (parental HEK cells; [3]): > 15600 nM
CC1C(CC(=O)NCC(=O)CCC2=Cc3ccccc3C2)=Nc2ccccc21 (stereo not drawn) [SR-01000068608] | 2.46 | 2.46 | – | – | – | – | – | 124.32 ± 15.50% | 4.52 | 4.51 | 0.93 | 0.34 | – | – | – | 24.17 ± 25.98% | > 14300 nM | – | –
CN1CCC(Oc2cc(-c3cn[nH]c3)ccc2NC(=O)C2COc3ccc(F)cc3C2)C1 (stereo not drawn) [SR-00000006339] | – | – | – | – | – | – | – | 103.42 ± 7.86% | 6.10 | 5.03 | 0.54 | 0.35 | 2.91 | 1.83 | 9 nM | – | – | 5.16 ± 8.02% | EC50 (parental HEK cells; [3]): > 14100 nM
CC(=O)c1cccc(C(C)(C)CC(=O)CNC(=O)c2ccccc2)c1 [SR-01000031674] | – | – | – | – | – | – | – | 113.33 ± 7.65% | 6.57 | 6.57 | 0.44 | 0.50 | 2.46 | 2.46 | – | – | – | 35.54 ± 2.15% | EC50 (parental HEK cells; [3]): > 15000 nM
CN(C)CCOc1cc(NC(=O)C2COc3ccccc3C2)ccc1-c1cn[nH]c1.O=C(O)C(F)(F)F.O=C(O)C(F)(F)F (stereo not drawn) [SR-00000004123] | 3.26 | 1.93 | 0.28 | 0.37 | 4.48 | 3.15 | 847 nM | 79.85 ± 11.38% | – | – | – | – | – | – | – | 3.68 ± 4.29% | – | – | EC50 (parental HEK cells; [1]): > 14100 nM
O=C(CCC(=O)c1ccco1)NNC(=O)CN1CCCc2ccccc21 [SR-01000068721] | – | – | – | – | – | – | – | 109.68 ± 5.18% | 5.32 | 5.32 | 0.71 | 0.40 | 2.68 | 2.68 | 34.7 nM | – | – | 8.82 ± 10.34% | EC50 (parental HEK cells; [3]): > 15200 nM
O=C(O)COc1cc(Br)c(Br)c(Br)c1O [SR-01000028953] | 5.29 | 1.52 | 0.54 | 0.80 | 6.30 | 2.53 | – | 88.05 ± 4.24% | – | – | – | – | – | – | – | 1.36 ± 9.86% | > 15300 nM | – | –
O=C(Cc1cccc2ccccc12)NCC(=O)NNC(=O)c1ccco1 [SR-01000069451] | 3.83 | 3.83 | – | – | – | – | – | 95.18 ± 9.10% | 6.21 | 6.20 | 1.06 | 0.39 | – | – | 60.5 nM | 25.95 ± 1.00% | > 14400 nM | – | –

More lines, main results first:

Lipophilic Efficiency (logD) (parental HEK cells; HEK Agonist Activity section) | Lipophilic Efficiency (logP) (parental HEK cells; HEK Agonist Activity section) | Efficiency Ligand (GPR139) | Hill Slope (GPR139) | Lipophilic Efficiency (logD) (GPR139) | Lipophilic Efficiency (logP) (GPR139) | EC50 (GPR139; HEK-GPR139 cells) | Averaged Max % Response (±St. Dev.) (GPR139) | Lipophilic Efficiency (logD) (GPR139; based on logD) | Lipophilic Efficiency (logP) (GPR139; based on logP) | Hill Slope (GPR139; fitted dose-response curve) | Efficiency Ligand (GPR139; ligand efficiency) | Lipophilic Efficiency (logD) (parental HEK cells; HEK Agonist Activity) | Lipophilic Efficiency (logP) (parental HEK cells; HEK Agonist Activity) | EC50 (GPR139; [4]) | Compound | Averaged Max % Response (±St. Dev.) (parental HEK cells; HEK Agonist Activity section) | EC50 (parental HEK cells; [2]) | Averaged Max % Response (±St. Dev.) (parental HEK cells; HEK Agonist Activity) | further results
3.41 | 3.41 | 0.40 | 0.89 | 5.11 | 5.11 | 278 nM | 113.63 ± 31.77% | – | – | – | – | – | – | – | O=C(Cn1ncn2cccc2c1=O)NCCc1ccc(Cl)cc1 [SR-01000140172] | 2.22 ± 10.07% | – | – | EC50 (parental HEK cells; [1]): > 14100 nM
– | – | – | – | – | – | – | 123.61 ± 28.77% | 2.25 | 2.25 | 0.47 | 0.37 | −0.34 | −0.34 | 36.6 nM | COP(=O)(CN(CCc1ccc(Cl)cc1)C(=O)Nc1ccc(Cl)c(Cl)c1)OC [SR-01000584158] | – | – | 0.77 ± 6.52% | EC50 (parental HEK cells; [5]): > 14100 nM
2.16 | 2.16 | 0.41 | 2.51 | 3.22 | 3.22 | 1200 nM | 90.96 ± 29.33% | – | – | – | – | – | – | – | Cc1cc(=O)n2nc(NCc3ccccc3Cl)nc2[nH]1 [SR-01000153886] | −3.87 ± 9.73% | > 14100 nM | – | –
−0.610 | −0.614 | 0.39 | 0.44 | 0.98 | 0.98 | 358 nM | 87.84 ± 4.08% | – | – | – | – | – | – | – | CC(C)(C)c1cn2cccc(OCc3ccc(Cl)c(Cl)c3)c2n1 [SR-07000004609] | −5.59 ± 4.81% | > 14100 nM | – | –
1.37 | 1.37 | 0.30 | 1.06 | 2.28 | 2.28 | 1700 nM | 81.40 ± 9.66% | – | – | – | – | – | – | – | CCOC(=O)c1ccc(NC(=O)Cn2c(C)c(C=O)c3ccccc32)cc1 [SR-01000248261] | 19.46 ± 6.76% | – | – | EC50 (parental HEK cells; [1]): > 14100 nM
0.98 | 0.95 | – | – | – | – | – | 91.99 ± 13.68% | 2.98 | 2.96 | 1.03 | 0.41 | – | – | 100 nM | Cc1ccccc1C(=O)NNC(=O)C(C)Oc1ccc(Cl)cc1Cl (stereo not drawn) [SR-01000410694] | 10.08 ± 3.68% | > 10200 nM | – | –
1.62 | 1.62 | 0.32 | 1.42 | 2.66 | 2.66 | 1300 nM | 88.21 ± 16.68% | – | – | – | – | – | – | – | Cc1ccc(CNC(=O)Cn2nc(-c3ccc(C)cc3)ccc2=O)cc1 [SR-01000145456] | −11.57 ± 15.53% | > 14100 nM | – | –
2.27 | 2.27 | 0.35 | 0.92 | 3.97 | 3.97 | 281 nM | 112.56 ± 16.12% | – | – | – | – | – | – | – | O=C(CN1CCCN(Cc2ccc(F)cc2Cl)C1=O)NC1CCCCC1 [SR-01000146448] | 10.11 ± 11.28% | – | – | EC50 (parental HEK cells; [1]): > 14100 nM
2.31 | 2.31 | 0.28 | 0.49 | 3.17 | 3.17 | 2000 nM | 80.01 ± 6.26% | – | – | – | – | – | – | – | COc1ccc2cc(CCNC(=O)/C=C\c3ccc4c(c3)OCO4)c(=O)[nH]c2c1 [SR-01000124392] | 5.97 ± 7.64% | – | – | EC50 (parental HEK cells; [1]): > 14100 nM
– | – | – | – | – | – | – | 119.91 ± 2.22% | 5.19 | 5.19 | 0.32 | 0.40 | 2.34 | 2.34 | 19.8 nM | CC(C)CCNC(=O)C1C2C=CC3(CN(Cc4ccccc4Cl)C(=O)C13)O2 (stereo not drawn) [SR-01000104567] | – | – | 8.02 ± 5.87% | EC50 (parental HEK cells; [5]): > 14100 nM
